“And” between values parts separate entries of the source, which are not always exact repeats. Equal values may be shown once.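 Where inhibition never reached the appropriate level, the endpoint shown equals the highest concentration tested. Otherwise, values were interpolated linearly from a five-concentration, 48-hour dose response in 96-well plates. GI50 = concentration required for 50% inhibition of growth. Definition used: TGI = concentration required for complete inhibition of growth.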
Legend:
Experiment in all cases: growth of human tumour cells (NCI), 48 h
HCC-2998 colon = test system: HCC-2998 colon
K-562 leukemia = test system: K-562 leukemia
LOX IMVI melanoma = test system: LOX IMVI melanoma
MDA-MB-231 breast = test system: MDA-MB-231 breast
OVCAR-4 ovarian = test system: OVCAR-4 ovarian
RXF 393 renal = test system: RXF 393 renal
SK-MEL-2 melanoma = test system: SK-MEL-2 melanoma
T-47D breast = test system: T-47D breast

Structure (SMILES) | TGI (HCC-2998 colon) | TGI (K-562 leukemia) | TGI (LOX IMVI melanoma) | TGI (MDA-MB-231 breast) | TGI (OVCAR-4 ovarian) | TGI (RXF 393 renal) | TGI (SK-MEL-2 melanoma) [µM] | TGI (T-47D breast) | GI50 (HCC-2998 colon) [µM] | GI50 (K-562 leukemia) [µM] | GI50 (LOX IMVI melanoma) [µM] | GI50 (MDA-MB-231 breast) [µM] | GI50 (OVCAR-4 ovarian) [µM] | GI50 (RXF 393 renal) [µM] | GI50 (SK-MEL-2 melanoma) [µM] | GI50 (T-47D breast) [µM]
O=C1Nc2ccccc2C1S(=O)(=O)c1ccccc1 (centres undefined) | > 100 µM | > 100 µM | > 100 µM | > 100 µM | > 100 µM | > 100 µM | > 100 | > 100 µM |  |  |  |  |  |  |  | 
Nc1ncc(Sc2ccccc2C(=O)O)s1 |  | > 100 µM | > 100 µM | > 100 µM |  | > 100 µM | > 100 | > 100 µM |  |  |  |  |  |  |  | 
C/C(=N\Nc1nc2ccccc2n1C)c1ccc2ccccc2n1 | 0.9 µM | 10.6 µM | 16.6 µM | 28.8 µM | 0.954 µM | 29.3 µM | > 36 |  |  |  |  |  |  |  |  | 
Clc1ccc(Cn2cc(/C=N/n3cnnc3)c3ccccc32)cc1 | 31.4 µM | > 100 µM | > 100 µM | 74.5 µM | > 100 µM | 46.8 µM | 82.9 | 52.3 µM |  |  |  |  |  |  |  | 
COc1ccc2c(C(=O)c3c(C)n(CCN4CCOCC4)c4ccccc34)cccc2c1 |  | > 100 µM | 45.4 µM | 80.2 µM | > 100 µM | 91.2 µM | 55.9 | > 100 µM |  |  |  |  |  |  |  | 
CC(C)(CC1(C)NC(=O)NC1=O)OCc1ccccc1 (centres undefined) | > 100 µM | > 100 µM | > 100 µM | > 100 µM | > 100 µM | > 100 µM | > 100 | > 100 µM |  |  |  |  |  |  |  | 
C=C1C(=O)O[C@@H]2[C@H]1C[C@H](I)[C@@]1(C)CC[C@H](O1)[C@](C)(I)CCCC(C)[C@@H]2O (some centres undefined) | 25.2 µM | > 42.1 µM | 2.59 µM | 16.3 µM | 17.6 µM | 4.44 µM | 28.6 | 12.7 µM |  |  |  |  |  |  |  | 
COc1cccc(Nc2nc(NS(=O)(=O)c3cc(C)c(Cl)cc3S)n[nH]2)c1 | > 100 µM | > 100 µM | > 100 µM | > 100 µM | > 100 µM | > 100 µM | > 100 | > 100 µM |  |  |  |  |  |  |  | 
CCCCCC(/C=C/[C@@H]1[C@@H](C(O)CCCCCC(=O)OC)C(=O)C[C@H]1O[Si](C)(C)C(C)(C)C)OCOCCOC (some centres undefined) | > 57 µM | > 52 µM | 14.5 µM | 44.1 µM | 40.9 µM | 39.8 µM | 32.4 | 51.8 µM |  |  |  |  |  |  |  | 
Cn1c(=O)n2n(c1=O)C(S(=O)c1ccccc1)C2 (centres undefined) | > 100 µM | > 100 µM | > 100 µM | > 100 µM | > 100 µM | > 100 µM | > 100 |  |  |  |  |  |  |  |  | 
CCCCOCCOCCOC1=C(Cl)C(=O)c2c(O)ccc(O)c2C1=O | 4.79 µM |  | 1.75 µM | 1.32 µM | 1.38 µM | 2.05 µM |  | 2.52 µM |  |  |  |  |  |  |  | 
O/N=C1\CSc2ccccc2C1 | > 100 µM | > 100 µM | > 100 µM | > 100 µM | > 100 µM | > 100 µM | > 100 | > 100 µM |  |  |  |  |  |  |  | 
COc1cccc(/C=C2/S/C(=N/Nc3nc(C)c(C(C)=O)s3)NC2=O)c1O | > 100 µM | > 100 µM | > 100 µM | 44.8 µM | > 100 µM | 93.2 µM | 48 | 96.5 µM |  |  |  |  |  |  |  | 
Cc1ccc2oc3c(ccc(=O)n3C)c(=O)c2c1 | > 100 µM | > 100 µM | > 100 µM | > 100 µM | > 100 µM | > 100 µM | > 100 | > 100 µM |  |  |  |  |  |  |  | 
CSC1(Cc2ccccn2)C(=O)Nc2cccc([N+](=O)[O-])c21 (centres undefined) | > 100 µM |  | > 100 µM | > 100 µM | > 100 µM |  | > 100 | > 100 µM |  |  |  |  |  |  |  | 
CO/C(=N\N=C(/c1ccccc1)C(F)(F)F)c1ccncc1 |  | > 100 µM |  | > 100 µM | > 100 µM | > 100 µM | > 100 | > 100 µM |  |  |  |  |  |  |  | 
CCOC(=O)C(C)(Cc1ccc(O)cn1)NC(=O)c1ccccc1 (centres undefined) | > 100 µM | > 100 µM | > 100 µM | > 100 µM | > 100 µM | > 100 µM | > 100 |  |  |  |  |  |  |  |  | 
Cn1cnnc1SC(F)(F)c1nc2ccccc2o1 | > 100 µM | > 100 µM |  | > 100 µM | > 100 µM | > 100 µM | > 100 | > 100 µM |  |  |  |  |  |  |  | 
CC(=O)Oc1ccc2cc(Oc3ccccc3)c(=O)oc2c1 | > 100 µM |  | > 100 µM | > 100 µM | > 100 µM | > 100 µM |  | > 100 µM |  |  |  |  |  |  |  | 
Cc1ccc(C=C(C(=O)O)C(=O)O)o1 | > 100 µM | > 100 µM | > 100 µM | > 100 µM |  | > 100 µM | > 100 |  |  |  |  |  |  |  |  | 
C=C(Cl)C(Cl)(CBr)CCC(Br)C(C)(C)Cl (centres undefined) | 6.35 µM and 2.97 µM and 8.14 µM | 24.4 µM and 10.8 µM and > 92.9 µM | 12.4 µM and 29.7 µM and 33.6 µM | 2.92 µM and 5.94 µM and 27.2 µM | 7.93 µM and 4.62 µM and 31.9 µM | 3.92 µM and 0.991 µM and 4.49 µM | 4.17 | 2.99 µM and 5.16 µM and 1.25 µM |  |  |  |  |  |  |  | 
CC(=O)Nc1sccc1S(=O)(=O)c1ccc(Cl)cc1 | > 100 µM | > 100 µM |  | > 100 µM | > 100 µM | > 100 µM | > 100 | > 100 µM |  |  |  |  |  |  |  | 
O=C(O)c1ccccc1CC(Cc1ccccc1)C(=O)O (centres undefined) | > 100 µM | > 100 µM | > 100 µM | > 100 µM | > 100 µM | > 100 µM | > 100 | > 100 µM |  |  |  |  |  |  |  | 
CCOc1cc(/C=C/C(=O)CC(=O)/C=C/c2ccc(OC(=O)CNCCN(CC)CC)c(OCC)c2)ccc1OC(=O)CNCCN(CC)CC | 3.19 µM | 16.3 µM | 2.44 µM | 6.08 µM | > 100 µM | 2.03 µM | 3.26 | 45.4 µM | 1.65 | 1.44 | 1.05 | 2.08 | 4.35 | 0.681 | 1.68 | 6.41
Cc1cc(C)nc(NC(=S)Nc2ccc(Cl)cc2)c1 |  | > 100 µM | > 100 µM | > 100 µM | 61.1 µM | > 100 µM | > 100 | > 100 µM |  |  |  |  |  |  |  | 

From PubChem BioAssay (NCI)
